What was measured:
[1] = molecular target: Beta-1 adrenergic receptor (Homo sapiens, UniProt P08588); assay: DRUGMATRIX: Adrenergic beta1 radioligand binding (ligand: [125I] Cyanopindolol); type: cell membranes, CHO-K1, Membrane; details: cho-k1; Not Active = under 50% inhibition at 10 µM
[2] = DRUGMATRIX: Tumor Necrosis Factor (TNF), Non-Selective radioligand binding (ligand: [125I] TNF-alpha); type: cell membranes, Membrane; details: u-937; Not Active = under 50% inhibition at 10 µM
[3] = molecular target: T1, 3-hydroxy-3-methylglutaryl-coenzyme A reductase (Homo sapiens, UniProt P04035); parameters: species or system Escherichia coli;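 also: enzyme inhibition assay of HMG-CoA reductase using radiolabeled [14C]HMG-CoA as substrate; in other assays of this panel Not Active means under 50% inhibition at 10 µM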
T1 sequence (P04035 whole entry): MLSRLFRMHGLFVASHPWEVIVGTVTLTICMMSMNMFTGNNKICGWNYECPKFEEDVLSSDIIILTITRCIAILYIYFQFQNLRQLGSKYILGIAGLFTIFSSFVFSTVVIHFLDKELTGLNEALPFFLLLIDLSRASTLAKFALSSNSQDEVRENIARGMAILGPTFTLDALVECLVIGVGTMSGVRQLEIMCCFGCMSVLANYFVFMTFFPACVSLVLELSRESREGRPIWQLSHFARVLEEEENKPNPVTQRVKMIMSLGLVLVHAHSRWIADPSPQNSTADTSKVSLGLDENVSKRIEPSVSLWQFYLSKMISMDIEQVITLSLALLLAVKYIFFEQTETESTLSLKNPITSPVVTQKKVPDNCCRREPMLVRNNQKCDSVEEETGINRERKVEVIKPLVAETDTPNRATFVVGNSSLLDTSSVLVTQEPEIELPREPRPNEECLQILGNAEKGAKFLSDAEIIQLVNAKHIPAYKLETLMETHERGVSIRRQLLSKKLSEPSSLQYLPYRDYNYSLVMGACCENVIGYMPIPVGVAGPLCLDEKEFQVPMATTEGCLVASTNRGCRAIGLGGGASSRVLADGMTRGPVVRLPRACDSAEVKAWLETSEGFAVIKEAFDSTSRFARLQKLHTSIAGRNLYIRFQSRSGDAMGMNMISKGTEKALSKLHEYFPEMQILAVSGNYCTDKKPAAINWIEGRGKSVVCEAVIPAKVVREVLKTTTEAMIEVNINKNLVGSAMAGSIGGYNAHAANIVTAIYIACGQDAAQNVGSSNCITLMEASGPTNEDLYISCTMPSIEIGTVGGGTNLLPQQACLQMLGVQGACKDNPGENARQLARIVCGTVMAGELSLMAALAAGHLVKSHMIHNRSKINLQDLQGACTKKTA

[4] = DRUGMATRIX: Phosphodiesterase PDE4 enzyme inhibition (substrate: [3H]cAMP + cAMP); details: u-937; Not Active = under 50% inhibition at 10 µM
[5] = molecular target: Matrix metalloproteinase-9 (Homo sapiens, UniProt P14780); type: cell-based;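 also: inhibition of isolated MMP-9 enzyme activity toward a synthetic peptide substrate, from the DrugMatrix protease screening panel; in other assays of this panel Not Active means under 50% inhibition at 10 µM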
[6] = molecular target: 5-hydroxytryptamine receptor 1B (Rattus norvegicus, UniProt P28564); type: cell membranes, Wistar, Cerebral cortex, Membrane; also: in other assays of this panel Not Active means under 50% inhibition at 10 µM
Cytochrome P450 2C9 = Cytochrome P450 2C9 (Homo sapiens, UniProt P11712); details: bti-tn-5b1-4; also: in other assays of this panel Not Active means under 50% inhibition at 10 µM
Cytochrome P450 3A4 = Cytochrome P450 3A4 (Homo sapiens, UniProt P08684); details: bti-tn-5b1-4; also: in other assays of this panel Not Active means under 50% inhibition at 10 µM
Cytochrome P450 3A4, sequence (P08684 whole entry): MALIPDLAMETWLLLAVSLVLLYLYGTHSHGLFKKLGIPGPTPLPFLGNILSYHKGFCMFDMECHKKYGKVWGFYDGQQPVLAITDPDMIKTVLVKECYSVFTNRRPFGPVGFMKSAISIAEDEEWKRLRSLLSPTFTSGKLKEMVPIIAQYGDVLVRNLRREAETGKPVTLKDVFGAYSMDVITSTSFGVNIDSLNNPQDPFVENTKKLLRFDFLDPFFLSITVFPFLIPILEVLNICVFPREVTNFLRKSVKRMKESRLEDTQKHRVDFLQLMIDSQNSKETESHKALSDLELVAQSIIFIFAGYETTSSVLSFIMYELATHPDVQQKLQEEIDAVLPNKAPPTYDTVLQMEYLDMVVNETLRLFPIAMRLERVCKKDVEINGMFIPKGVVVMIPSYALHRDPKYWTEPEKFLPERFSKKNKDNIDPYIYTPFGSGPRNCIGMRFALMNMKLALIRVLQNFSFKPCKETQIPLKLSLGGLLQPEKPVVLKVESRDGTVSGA

Beta-1 adrenergic receptor, sequence (P08588 whole entry): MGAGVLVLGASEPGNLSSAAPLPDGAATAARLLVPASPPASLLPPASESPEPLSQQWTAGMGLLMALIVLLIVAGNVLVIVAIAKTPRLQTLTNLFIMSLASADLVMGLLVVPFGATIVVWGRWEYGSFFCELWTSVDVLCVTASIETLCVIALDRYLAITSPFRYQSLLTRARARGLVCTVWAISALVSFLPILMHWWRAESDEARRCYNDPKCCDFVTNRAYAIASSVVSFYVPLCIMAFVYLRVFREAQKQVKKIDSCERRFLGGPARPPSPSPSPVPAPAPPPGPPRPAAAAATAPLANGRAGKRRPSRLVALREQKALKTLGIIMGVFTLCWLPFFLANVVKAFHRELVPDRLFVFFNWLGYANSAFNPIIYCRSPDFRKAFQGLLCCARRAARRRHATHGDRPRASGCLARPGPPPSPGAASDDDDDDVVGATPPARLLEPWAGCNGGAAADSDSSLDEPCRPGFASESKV
Matrix metalloproteinase-9, sequence (P14780 whole entry): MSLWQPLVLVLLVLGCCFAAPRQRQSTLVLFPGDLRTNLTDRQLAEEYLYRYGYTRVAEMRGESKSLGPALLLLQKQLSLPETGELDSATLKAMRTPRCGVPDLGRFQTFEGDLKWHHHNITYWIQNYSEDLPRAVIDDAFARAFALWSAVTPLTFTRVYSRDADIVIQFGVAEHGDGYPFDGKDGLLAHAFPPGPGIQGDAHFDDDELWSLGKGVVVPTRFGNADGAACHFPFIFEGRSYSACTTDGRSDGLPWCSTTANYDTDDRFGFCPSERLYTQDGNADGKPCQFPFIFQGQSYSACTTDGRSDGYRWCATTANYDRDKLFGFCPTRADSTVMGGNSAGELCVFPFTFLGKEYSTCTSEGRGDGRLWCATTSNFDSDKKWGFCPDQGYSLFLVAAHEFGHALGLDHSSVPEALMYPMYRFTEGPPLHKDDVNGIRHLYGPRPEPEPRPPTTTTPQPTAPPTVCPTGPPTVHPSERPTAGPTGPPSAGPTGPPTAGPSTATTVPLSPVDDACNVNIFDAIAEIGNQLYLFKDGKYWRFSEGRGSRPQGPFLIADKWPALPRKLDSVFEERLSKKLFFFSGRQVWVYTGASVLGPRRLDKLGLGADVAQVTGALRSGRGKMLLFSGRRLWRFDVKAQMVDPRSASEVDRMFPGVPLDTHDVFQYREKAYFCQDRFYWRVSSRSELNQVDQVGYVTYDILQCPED
5-hydroxytryptamine receptor 1B, sequence (P28564 whole entry): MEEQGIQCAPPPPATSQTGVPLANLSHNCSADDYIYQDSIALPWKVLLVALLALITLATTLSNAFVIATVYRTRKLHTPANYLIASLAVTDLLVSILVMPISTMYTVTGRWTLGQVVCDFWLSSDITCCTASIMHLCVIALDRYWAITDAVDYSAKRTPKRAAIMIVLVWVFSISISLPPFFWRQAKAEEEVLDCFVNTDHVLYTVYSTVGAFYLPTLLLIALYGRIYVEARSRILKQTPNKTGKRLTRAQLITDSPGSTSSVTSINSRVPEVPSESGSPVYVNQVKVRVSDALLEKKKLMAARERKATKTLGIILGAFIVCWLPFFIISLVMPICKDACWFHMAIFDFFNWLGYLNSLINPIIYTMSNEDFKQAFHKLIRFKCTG
Cytochrome P450 2C9, sequence (P11712 whole entry): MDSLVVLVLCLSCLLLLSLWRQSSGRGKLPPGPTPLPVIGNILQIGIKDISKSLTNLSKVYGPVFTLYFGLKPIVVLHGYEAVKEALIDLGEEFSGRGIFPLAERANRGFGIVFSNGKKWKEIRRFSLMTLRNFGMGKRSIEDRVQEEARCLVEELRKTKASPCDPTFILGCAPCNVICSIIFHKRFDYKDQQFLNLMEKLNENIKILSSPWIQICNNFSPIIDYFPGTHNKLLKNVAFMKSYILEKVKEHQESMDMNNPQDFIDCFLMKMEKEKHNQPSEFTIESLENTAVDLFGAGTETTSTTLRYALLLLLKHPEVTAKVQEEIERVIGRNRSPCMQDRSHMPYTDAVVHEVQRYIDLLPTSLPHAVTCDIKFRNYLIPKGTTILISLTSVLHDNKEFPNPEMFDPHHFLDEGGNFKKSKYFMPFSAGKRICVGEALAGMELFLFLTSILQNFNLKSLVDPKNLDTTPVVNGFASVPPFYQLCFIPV

Clc1cc(Cl)c(OCC#CI)cc1Cl [HALOPROGIN]
Not Active: IC50 [1] | IC50 [2] | Ki [2] | IC50 [3] | IC50 [4] | Ki [4] | IC50 [5] | IC50 [6] | IC50 (Cytochrome P450 2C9) | Ki (Cytochrome P450 2C9) | IC50 (Cytochrome P450 3A4) | Ki (Cytochrome P450 3A4)

CHROMIC CHLORIDE
Not Active: IC50 [1] | Ki [1] | IC50 [2] | Ki [2] | IC50 [3] | Ki [3] | IC50 [4] | Ki [4] | IC50 [5] | Ki [5] | IC50 [6] | Ki [6] | IC50 (Cytochrome P450 2C9) | Ki (Cytochrome P450 2C9) | IC50 (Cytochrome P450 3A4) | Ki (Cytochrome P450 3A4)

Nc1ccc(Cc2ccc(N)cc2)cc1
Not Active: IC50 [1] | IC50 [2] | Ki [2] | IC50 [3] | IC50 [4] | Ki [4] | IC50 [5] | IC50 [6] | IC50 (Cytochrome P450 2C9) | Ki (Cytochrome P450 2C9) | IC50 (Cytochrome P450 3A4) | Ki (Cytochrome P450 3A4)

OC[C@H]1OC2C3[C@@H](CO)OC(O[C@H]4[C@H](O)[C@@H](O)[C@@H](O[C@H]5[C@H](O)[C@@H](O)[C@@H](O[C@H]6[C@H](O)[C@@H](O)[C@@H](O[C@H]7[C@H](O)[C@@H](O)[C@@H](O[C@H]8[C@H](O)[C@@H](O)[C@@H](O[C@H]9[C@H](O)[C@@H](O)C(OC1[C@H](O)[C@H]2O)O[C@@H]9CO)O[C@@H]8CO)O[C@@H]7CO)O[C@@H]6CO)O[C@@H]5CO)O[C@@H]4CO)[C@H](O)[C@H]3O
Not Active: IC50 [1] | IC50 [2] | Ki [2] | IC50 [3] | IC50 [4] | Ki [4] | IC50 [5] | IC50 [6] | IC50 (Cytochrome P450 2C9) | Ki (Cytochrome P450 2C9) | IC50 (Cytochrome P450 3A4) | Ki (Cytochrome P450 3A4)

Nc1ccc(C(=O)O)c(O)c1 [AMINOSALICYLIC ACID]
Not Active: IC50 [1] | IC50 [2] | Ki [2] | IC50 [3] | IC50 [4] | Ki [4] | IC50 [5] | IC50 [6] | IC50 (Cytochrome P450 2C9) | Ki (Cytochrome P450 2C9) | IC50 (Cytochrome P450 3A4) | Ki (Cytochrome P450 3A4)

O=c1[nH]cnc2c1ncn2[C@H]1CC[C@@H](CO)O1 [DIDANOSINE]
Not Active: IC50 [1] | IC50 [2] | Ki [2] | IC50 [3] | IC50 [4] | Ki [4] | IC50 [5] | IC50 [6] | IC50 (Cytochrome P450 2C9) | Ki (Cytochrome P450 2C9) | IC50 (Cytochrome P450 3A4) | Ki (Cytochrome P450 3A4)

CCCCCCNC(=O)n1cc(F)c(=O)[nH]c1=O [CARMOFUR]
Not Active: IC50 [1] | IC50 [2] | Ki [2] | IC50 [3] | IC50 [4] | Ki [4] | IC50 [5] | IC50 [6] | IC50 (Cytochrome P450 2C9) | Ki (Cytochrome P450 2C9) | IC50 (Cytochrome P450 3A4) | Ki (Cytochrome P450 3A4)

Cl.NC[C@H]1CC[C@H](C(=O)Oc2ccc(CCC(=O)O)cc2)CC1 [CETRAXATE HYDROCHLORIDE]
Not Active: IC50 [1] | IC50 [2] | Ki [2] | IC50 [3] | IC50 [4] | Ki [4] | IC50 [5] | IC50 [6] | IC50 (Cytochrome P450 2C9) | Ki (Cytochrome P450 2C9) | IC50 (Cytochrome P450 3A4) | Ki (Cytochrome P450 3A4)

CC(C)Cn1cnc2c(N)nc3ccccc3c21 [IMIQUIMOD]
Not Active: IC50 [1] | IC50 [2] | Ki [2] | IC50 [3] | IC50 [4] | Ki [4] | IC50 [5] | IC50 [6] | IC50 (Cytochrome P450 2C9) | Ki (Cytochrome P450 2C9) | IC50 (Cytochrome P450 3A4) | Ki (Cytochrome P450 3A4)

O=C1CN(/N=C/c2ccc([N+](=O)[O-])o2)C(=O)N1 [NITROFURANTOIN]
Not Active: IC50 [1] | IC50 [2] | Ki [2] | IC50 [3] | IC50 [4] | Ki [4] | IC50 [5] | IC50 [6] | IC50 (Cytochrome P450 2C9) | Ki (Cytochrome P450 2C9) | IC50 (Cytochrome P450 3A4) | Ki (Cytochrome P450 3A4)

CC(C)Cc1ccc([C@H](C)C(=O)O)cc1 [DEXIBUPROFEN]
Not Active: IC50 [1] | IC50 [2] | Ki [2] | IC50 [3] | IC50 [4] | Ki [4] | IC50 [5] | IC50 [6] | IC50 (Cytochrome P450 2C9) | Ki (Cytochrome P450 2C9) | IC50 (Cytochrome P450 3A4) | Ki (Cytochrome P450 3A4)

COC(=O)C[C@](O)(CCC(C)(C)O)C(=O)O[C@@H]1C(OC)=C[C@]23CCCN2CCc2cc4c(cc2[C@H]13)OCO4 [HARRINGTONINE]
Not Active: IC50 [1] | IC50 [2] | Ki [2] | IC50 [3] | IC50 [4] | Ki [4] | IC50 [5] | IC50 [6] | IC50 (Cytochrome P450 2C9) | Ki (Cytochrome P450 2C9) | IC50 (Cytochrome P450 3A4) | Ki (Cytochrome P450 3A4)

CC(C)(c1ccc(O)cc1)c1ccc(O)cc1 [BISPHENOL A]
Not Active: IC50 [1] | IC50 [2] | Ki [2] | IC50 [3] | IC50 [4] | Ki [4] | IC50 [5] | IC50 [6] | IC50 (Cytochrome P450 2C9) | Ki (Cytochrome P450 2C9) | IC50 (Cytochrome P450 3A4) | Ki (Cytochrome P450 3A4)

Source: ChEMBL document CHEMBL1909046, “DrugMatrix in vitro pharmacology data”
